Measurements published in patent US20240261224A1, “FORMULATION OF A PAN-JAK INHIBITOR” (KINASET THERAPEUTICS, INC., priority 2022, published 2024).

Experiments:
[1] = Margin of safety study versus 13-wk NHP NOAEL; assay type: in vivo
Source text: Results from the margin of safety study of lactose/MgSt-based formulations of Compound I are shown below in Table 17.

[2] = Phase 1 clinical trial adverse events summary (Part 1 healthy volunteers); assay type: in vivo, human; conditions: for Severe/serious TEAE, n (%) / Subjects with TEAE n, (%) / TEAE leading to discontinuation: Part 1 healthy volunteers
Protocol: A status summary of the phase 1 clinical trial recruitment is shown below in Table 18. Capsules filled with blend 2a were used to achieve a 0.6 mg target dose of Compound I (0.2 mg capsules×3). Capsules filled with blend 4 were used to achieve 2.0 mg, 4.0 mg, 6.0 mg, 8.0 mg, and 12.0 mg target doses of Compound I (2.0 mg capsule×1; 4.0 mg capsule×1; 2.0 mg capsules×3; 4.0 mg capsules×2; and 4.0 mg capsules×3, respectively). Twice daily dosing (BID) was achieved by repeating the preceding regime. For example, an 8.0 mg BID dosing regime is achieved by administering two doses of 4.0 mg capsules×2.

[3] = Phase 1 Part 2 plasma pharmacokinetics (mild asthma); assay type: in vivo, human; conditions: Day 10
Source text: Day 10 pharmacokinetic parameters for Parts 2 and 3 of Phase I are summarized below in Table 28. Part 2 involved the administration of 4 different dose regimens, to subjects with mild asthma naïve to ICS therapy, over a 10-day period. Each separate cohort comprised 6 subjects receiving active treatment with 2 receiving matching placebo. Blood samples were collected to enable the measurement of Compound I concentrations in plasma. The resultant data was used to determine the PK parameters at Day 10 representing the Day on which the final dose was received.

[4] = 4.0 mg BID vs 13-week NHP study

Cn1c(=O)n([C@H]2CCCN(C(=O)CC#N)C2)c2nc(-c3cnn4ccccc34)ccc21 [Compound I, (S)-3-(3-(1-methyl-2-oxo-5-(pyrazolo[1,5-a]pyridine-3-yl)-1H-imidazo[4,5-b]pyridine-3(2H)-yl)piperidin-1-yl)-3-oxopropanenitrile]
MoS versus inhalation toxicology study NOAELs, Lung exposure (mg/g lung) [1, 4]: 50
MoS versus inhalation toxicology study NOAELs, Plasma (group mean AUC0-24) [1, 4]: 3.2
Group mean AUC0-24 MoS (Phase 1 clinical study versus inhalation tox study NOAELs) ([1]; 4.0 mg BID vs 13-wk NHP NOAEL): 3.2
Lung dose of Compound I (mg/g) MoS ([1]; 4.0 mg BID vs 13-wk NHP NOAEL, adjusted for respirability assuming 10%, 25% and 100% lung deposition in rat, NHP and human): 50
Severe/serious TEAE, n (%) ([2]; 0.2 mg (n = 6)): 0
Subjects with TEAE n, (%) ([2]; 0.2 mg (n = 6)): 0
TEAE leading to discontinuation ([2]; 0.2 mg (n = 6)): 0
Severe/serious TEAE, n (%) ([2]; 0.6 mg (n = 7)): 0
Subjects with TEAE n, (%) ([2]; 0.6 mg (n = 7)): 2 (29%)
TEAE leading to discontinuation ([2]; 0.6 mg (n = 7)): 1
Severe/serious TEAE, n (%) ([2]; 2.0 mg (n = 6)): 0
Subjects with TEAE n, (%) ([2]; 2.0 mg (n = 6)): 2 (33%)
TEAE leading to discontinuation ([2]; 2.0 mg (n = 6)): 0
Severe/serious TEAE, n (%) ([2]; 4.0 mg (n = 6)): 0
Subjects with TEAE n, (%) ([2]; 4.0 mg (n = 6)): 0
TEAE leading to discontinuation ([2]; 4.0 mg (n = 6)): 0
Severe/serious TEAE, n (%) ([2]; 6.0 mg (n = 6)): 0
Subjects with TEAE n, (%) ([2]; 6.0 mg (n = 6)): 0
TEAE leading to discontinuation ([2]; 6.0 mg (n = 6)): 0
Severe/serious TEAE, n (%) ([2]; 12.0 mg (n = 6)): 0
Subjects with TEAE n, (%) ([2]; 12.0 mg (n = 6)): 0
TEAE leading to discontinuation ([2]; 12.0 mg (n = 6)): 0
Changes in cardiovascular endpoints (ECG and vital signs) ([2]; phase 1 clinical trial): No treatment-related clinically relevant changes
Severe or serious adverse events ([2]; phase 1 clinical trial): No severe or serious adverse events were observed
Changes in hematology, biochemistry or urinalysis parameters including those influenced by JAK inhibition ([2]; phase 1 clinical trial, per investigator): No clinically relevant changes
AUC0-12 hours Max ([3]; 0.6 mg QD): 23,507 pg · h/ml
AUC0-12 hours Min ([3]; 0.6 mg QD): 7,596 pg · h/ml
AUC0-24 hours Max ([3]; 0.6 mg QD): 36,466 pg · h/ml
AUC0-24 hours Min ([3]; 0.6 mg QD): 8,579 pg · h/ml
AUC0-last non-zero Max ([3]; 0.6 mg QD): 47,928 pg · h/ml
AUC0-last non-zero Min ([3]; 0.6 mg QD): 8,579 pg · h/ml
AUC0-∞ Max ([3]; 0.6 mg QD): 52,842 pg · h/ml
AUC0-∞ Min ([3]; 0.6 mg QD): 8,783 pg · h/ml
AUCover dosing interval Max ([3]; 0.6 mg QD): 36,466 pg · h/ml
AUCover dosing interval Min ([3]; 0.6 mg QD): 8,579 pg · h/ml
Cmax Max ([3]; 0.6 mg QD): 2,750 pg/ml
Cmax Min ([3]; 0.6 mg QD): 1,020 pg/ml
Ctrough Geometric mean ([3]; 0.6 mg QD): 0.234 ng/mL
Ctrough Max ([3]; 0.6 mg QD): 913 pg/mL
Ctrough Mean ([3]; 0.6 mg QD): 0.362 ng/mL
Ctrough Min ([3]; 0.6 mg QD): 0.034 ng/mL
AUC0-12 hours Max ([3]; 2 mg QD): 88,203 pg · h/ml
AUC0-12 hours Min ([3]; 2 mg QD): 30,807 pg · h/ml
AUC0-24 hours Max ([3]; 2 mg QD): 125,837 pg · h/ml
AUC0-24 hours Min ([3]; 2 mg QD): 42,693 pg · h/ml
AUC0-last non-zero Max ([3]; 2 mg QD): 143,585 pg · h/ml
AUC0-last non-zero Min ([3]; 2 mg QD): 48,931 pg · h/ml
AUC0-∞ Max ([3]; 2 mg QD): 145,552 pg · h/ml
AUC0-∞ Min ([3]; 2 mg QD): 50,025 pg · h/ml
AUCover dosing interval Max ([3]; 2 mg QD): 125,837 pg · h/ml
AUCover dosing interval Min ([3]; 2 mg QD): 42,693 pg · h/ml
Cmax Max ([3]; 2 mg QD): 9,630 pg/ml
Cmax Min ([3]; 2 mg QD): 4,160 pg/ml
Ctrough Geometric mean ([3]; 2 mg QD): 0.929 ng/mL
Ctrough Max ([3]; 2 mg QD): 1,370 pg/ml
Ctrough Mean ([3]; 2 mg QD): 0.97 ng/mL
Ctrough Min ([3]; 2 mg QD): 0.536 ng/mL
AUC0-12 hours Max ([3]; 4 mg BID): 373,995 pg · h/ml
AUC0-12 hours Min ([3]; 4 mg BID): 39,111 pg · h/ml
AUC0-24 hours Max ([3]; 4 mg BID): 473,634 pg · h/ml
AUC0-24 hours Min ([3]; 4 mg BID): 43,350 pg · h/ml
AUC0-last non-zero Max ([3]; 4 mg BID): 586,513 pg · h/ml
AUC0-last non-zero Min ([3]; 4 mg BID): 43,356 pg · h/ml
AUC0-∞ Max ([3]; 4 mg BID): 587,424 pg · h/ml
AUC0-∞ Min ([3]; 4 mg BID): 44,654 pg · h/ml
AUCover dosing interval Max ([3]; 4 mg BID): 373,995 pg · h/ml
AUCover dosing interval Min ([3]; 4 mg BID): 39,111 pg · h/ml
Cmax Max ([3]; 4 mg BID): 47,800 pg/ml
